Six molecules from patent US12264146B2, “Rho kinase inhibitor, method for preparing same and uses thereof” (BEIJING INCREASE INNOVATIVE DRUG CO., LTD., priority 2018, dated 2025) can be followed below.

The subject of series [1] is subarachnoid hemorrhage in rats. Kind of series: Rat subarachnoid hemorrhage (SAH) model by intravascular puncture, Sugawara bleeding score. It is filed as in vivo. On the set-up: dose or concentration left out as unconfirmed. To be noted: tail vein injection, 2 administrations 4 h apart, scored 24 h after first administration (Sugawara). On the procedure: Rat subarachnoid hemorrhage (SAH) model was built by intravascular puncture. After being weighed, the rats were anesthetized with sodium pentobarbital (50 mg/kg) or chloral hydrate (300 mg/kg) by intraperitoneal injection, then fixed on their back and maintained the animal's body temperature at about 37° C. The rats' neck skin was shaved for surgery, a median incision was made on the neck, and muscle and fascia were separated along the inner edge of stemocleidomastoid muscle to expose the main and bifurcation of right common carotid artery, and expose the external and internal carotid arteries.
The bifurcation of internal carotid artery was gently clamped with ophthalmic forceps, the bifurcation of the internal carotid artery and the external carotid artery was pierced with a 6-gauge syringe needle, the ophthalmic forceps holding the bifurcation of internal carotid artery was slightly loosen, and No. 3 fishing thread was used to perform a puncture at the bleeding point, the ophthalmic forceps on the internal carotid artery was loosen, and the fishing thread was inserted into skull. […] After staying for 15 seconds, the thread for puncture was completely removed, and the skin was sutured after compression to stop the bleeding. 1.6 million units of penicillin potassium (400,000 units/ml, 0.2 ml/rat) was intramuscularly injected to avoid wound infection. For the sham operation group, the thread for puncture was removed when resistance was felt without piercing the bifurcation of the anterior cerebral artery and the middle cerebral artery, while the remaining operation steps were the same as the model group. After the operation, the rats were transferred to a thermal insulation blanket, then transferred to a squirrel cage when they were basically awake, and kept normally.
In this test experimental, 32 groups were set, i.e., Groups 1 to 32, in which Group 1 was a normal control group (healthy rats), Group 2 was a sham operation control group (not modeling by puncture), Group 3 was a model control group (modeling by puncture, administrated with normal saline), Group 4 was a positive control group (modeling by puncture, administrated with fasudil hydrochloride injection), and Groups 5 to 32 were test groups of the compounds of the present application (modeling by puncture, respectively administrated with the compounds of the present application); and there were 8 animals (purchased from SPF (Beijing) Biotechnology Co., Ltd., the certificate number was SYXK (Beijing) 2016-0002) in each group, half of them were female and half of them were male. The animals were subjected to fasting for 12 to 18 hours without prohibition of drinking water before modeling. […] The rats were euthanized 24 h after the first administration, and the brains were taken. According to Sugawara's method (Reference: Sugawara T, Ayer R, Jadhav V, et al. A new grading system evaluating bleeding scale in filament perforation subarachnoid hemorrhage rat model. J Neurosci Methods. 2008, 167(2):327-34), the subarachnoid hemorrhage amounts were scored, and the scoring results were as follows: […]

A short description of series [2]: Toxicity test on endothelial cells EA.hy926, CCK-8 cell viability. As to conditions: human, 1000~0.32 μmol/L, 5-fold dilution, read-out: IC50 of Test compound (cytotoxicity on EA.hy926 cells). Format: cell-based. On the procedure: In this test example, 31 groups, i.e., Groups 1 to 31, were set, in which Group 1 was a blank control group, Group 2 was a normal control group, Group 3 was a positive control group, and Groups 4 to 31 were test groups of the compounds of the present application. The specific test operation comprised: 100 μL of endothelial cells EA.hy926 (purchased from Suzhou Beina Chuanglian Biotechnology Co., Ltd.) with a density of 5×10^4 was added to each well of a 96-well plate, and transferred to an incubator at 37° C. with 5% CO2 and saturated humidity conditions and cultured for 24 hours, 100 μL of 2× the test compound solution prepared and diluted with DMEM medium containing 10% fetal bovine serum was added, in which the test compound added in the positive control group was Fasudil hydrochloride (purchased from Beijing Sihuan Pharmaceutical Co., Ltd., SFDA approval number H20173349) solution with different concentrations, an equal volume of DMEM medium was added in the blank control group, an equal volume of PBS buffer was added in the normal control group, and a duplicate well was set for each concentration point. After adding the test compound, the culture was continued in the incubator for 24 hours, then 20 μL of CCK-8 detection solution (purchased from Beijing Solarbio Science & Technology Co., Ltd., Cat. No. CA1210) was added to each well, interacted at 37° C. for 2.5 hours, shaken and mixed well, and then the absorbance value at 450 nm was detected.
OD values were detected, and the cell viability values of test groups of different concentrations were calculated according to the cell viability calculation formula as follows: Cell viability=(Atest group−Ablank control)/(Anormal control−Ablank control)*100%
wherein A represented absorbance value at 450 nm.
Prism6.0 was used to obtain the inhibitor concentration-viability curve and to calculate the IC50 of the test compound, the correlation coefficient R^2>0.99; the inhibitor concentration-viability curves of Fasudil hydrochloride, R-YK1601, R-YK1603, R-YK1606, R-YK1607, R-YK1610 were shown in FIGS. 1 to 6, in which the abscissa was the logarithm on base 10 of the concentration of the test compound, and the ordinate was the cell activity (i.e., cell viability).

For another series, the system named is nitric oxide (NO). As to the kind of experiment: Synthesis and secretion of nitric oxide (NO) in EA.Hy926 endothelial cells, NO detection kit. As to conditions: EA.Hy926 cell supernatant, 24 h. Format: cell-based. On the procedure:
(§1) Commercially available cytokine kits were used to detect the effects of the compounds of the present application on vascular endothelium-derived contracting factor endothelin, vascular endothelium-derived relaxing factor endothelial nitric oxide synthase, nitric oxide, and prostacyclin factor. The detection was performed according to the kit instructions. When testing the effect of the compound of the present application on cytokines, a normal control group, a fasudil hydrochloride group, and high-, medium- and low-dose groups of the compounds of the present application were set up for testing. The fasudil hydrochloride used in this test example was purchased from Beijing Sihuan Pharmaceutical Co., Ltd., with the SFDA approval number of H20173349. The EA.Hy926 cells used in this test example were purchased from Suzhou Beina Chuanglian Biotechnology Co., Ltd.
EA.Hy926 cells were inoculated in a 24-well plate at 5×10^5 cells/mL, 400 μL per well, and cultured adherently for 18 hours, then the supernatant was discarded, the test compound prepared in DMEM medium was added, and an equal volume of DMEM medium was added in the normal control group, then the cells was cultured for 24 h in incubator, and then the cell supernatant was collected and detected according to the instructions of NO detection kit (purchased from Beyotime Institute of Biotechnology, Cat. No. 062617171017), and the detection results were shown in Table 5.

Series [3] concerns endothelial nitric oxide synthase (eNOS). Kind of series: Endothelial nitric oxide synthase (eNOS) in EA.Hy926 endothelial cells, detection kit. It is filed as cell-based. To be noted: EA.Hy926 cell supernatant, 24 h. On the procedure: as §1
Detection conditions: EA.Hy926 cells were inoculated at 1×10^5 […] in a 96-well plate, 100 μL per well, and cultured adherently for 24 hours, then the test compound prepared with DMEM medium was added, the normal control group was added with an equal volume of DMEM medium, then the cells were cultured for 24 hours at 37° C., and then the cell supernatant was taken and placed in an EP tube, and centrifuged at 3000 r/min and 4° C. for 15 minutes, the resulting supernatant was transferred to a new EP tube, diluted 3 times, and detected according to the instruction of eNOs detection kit (purchased from Wuhan Elabscience Biotechnology Co., Ltd., Cat. No. AK0017OCT12013), and the detection results were shown in Table 4.

As for `C[C@@H]1CNCCCN1S(=O)(=O)c1cccc2c(O)ncc(F)c12` [Compound R-YK1604, (R)-4-fluoro-5-((2-methyl-1,4-diazacycloheptan-1-yl)sulfonyl)isoquinolin-1-ol], in series [1], the “Cerebral hemorrhage volume score (x ± s)” value is given as 12.58 ± 1.96. The concentration for half-maximal inhibition (IC50) at 24 h in series [2] amounted to 210 µM. In the series with nitric oxide (NO), the “nitric oxide secretion in endothelial cells: Detection result of test compound at low dose (0.4 μM)” value (“nitric oxide secretion … (0.4 μM)” for short) is reported as 1.009 ± 0.064 μm, the “nitric oxide secretion in endothelial cells: Detection result of test compound at medium dose (2 μM)” value (“nitric oxide secretion … (2 μM)” for short) was 0.851 ± 0.032 μm and the “nitric oxide secretion in endothelial cells: Detection result of test compound at high dose (10 μM)” value (“nitric oxide secretion … (10 μM)” below) is given as 0.829 ± 0.064 μm. In series [3], the “expression of endothelial nitric oxide synthase in endothelial cells: Detection result of test compound at low dose (0.4 μM)” value (from here on “expression … (0.4 μM)”) is 2932.05 ± 435.87 pg/mL, the “expression of endothelial nitric oxide synthase in endothelial cells: Detection result of test compound at medium dose (2 μM)” value (“expression … (2 μM)” below) was 2397.93 ± 180.08 pg/mL and the “expression of endothelial nitric oxide synthase in endothelial cells: Detection result of test compound at high dose (10 μM)” value (from here on “expression … (10 μM)”) is 2229.68 ± 63.98 pg/mL.
As for `COc1ncc(F)c2c(S(=O)(=O)N3CCCNC[C@H]3C)cccc12` [Compound R-YK1605, (R)-4-fluoro-1-methoxy-5-((2-methyl-1,4-diazacycloheptan-1-yl)sulfonyl)isoquinoline], the “Cerebral hemorrhage volume score (x ± s)” value in series [1] turned out to be 12.95 ± 2.04. The IC50 at 24 h in series [2] amounted to 184 µM. In addition, in the series with nitric oxide (NO), the “nitric oxide secretion … (0.4 μM)” value was determined as 0.950 ± 0.134 μm, the “nitric oxide secretion … (2 μM)” value came to 1.023 ± 0.006 μm and the “nitric oxide secretion … (10 μM)” value is listed as 1.122 ± 0.006 μm. Moreover, in series [3], the “expression … (0.4 μM)” value stood at 2752.53 ± 779.12 pg/mL, the “expression … (2 μM)” value was found to be 2261.58 ± 253.77 pg/mL and the “expression … (10 μM)” value came to 2105.70 ± 87.14 pg/mL.
For the molecule `C[C@@H]1CNCCCN1S(=O)(=O)c1cccc2c(O)ncc(Cl)c12` [Compound R-YK1606, (R)-4-chloro-5-((2-methyl-1,4-diazacycloheptan-1-yl)sulfonyl)isoquinolin-1-ol], the “Cerebral hemorrhage volume score (x ± s)” value in series [1] was determined as 12.69 ± 2.01. Besides, the 50% inhibitory concentration (IC50) at 24 h in series [2] is 181 µM. In the series on nitric oxide (NO), the “nitric oxide secretion … (0.4 μM)” value came to 1.131 ± 0.019 μm, the “nitric oxide secretion … (2 μM)” value turned out to be 1.009 ± 0.102 μm and the “nitric oxide secretion … (10 μM)” value was determined as 1.158 ± 0.223 μm. Moreover, in series [3], the “expression … (0.4 μM)” value is 2974.79 ± 361.75 pg/mL, the “expression … (2 μM)” value amounted to 2400.67 ± 226.73 pg/mL and the “expression … (10 μM)” value is 2286.01 ± 95.04 pg/mL.
As for `CCc1cnc(O)c2cccc(S(=O)(=O)N3CCCNC[C@H]3C)c12` [Compound R-YK1607, (R)-4-ethyl-5-((2-methyl-1,4-diazacycloheptan-1-yl)sulfonyl)isoquinolin-1-ol], the “Cerebral hemorrhage volume score (x ± s)” value in series [1] was 12.12 ± 2.06. Moreover, the IC50 at 24 h in series [2] was determined as 230 µM. Also, in the series with nitric oxide (NO), the “nitric oxide secretion … (0.4 μM)” value is 0.898 ± 0.006 μm, the “nitric oxide secretion … (2 μM)” value is given as 0.924 ± 0.032 μm and the “nitric oxide secretion … (10 μM)” value stood at 1.010 ± 0.006 μm. Further, in series [3], the “expression … (0.4 μM)” value amounted to 2426.66 ± 220.56 pg/mL, the “expression … (2 μM)” value is 2239.70 ± 249.84 pg/mL and the “expression … (10 μM)” value came to 2298.44 ± 265.33 pg/mL.
In the case of `O=S(=O)(c1cccc2cnccc12)N1CCCNC[C@H]1C1CC1` [Compound R-YK1608, (R)-5-((2-cyclopropyl-1,4-diazacycloheptan-1-yl)sulfonyl)isoquinoline], the “Cerebral hemorrhage volume score (x ± s)” value in series [1] turned out to be 13.18 ± 1.97. Moreover, the 50% inhibitory concentration (IC50) at 24 h in series [2] came to 165 µM. Further, in the series with nitric oxide (NO), the “nitric oxide secretion … (0.4 μM)” value stood at 0.918 ± 0.008 μm, the “nitric oxide secretion … (2 μM)” value was 0.984 ± 0.042 μm and the “nitric oxide secretion … (10 μM)” value is 1.105 ± 0.007 μm. In series [3], the “expression … (0.4 μM)” value was found to be 2697.85 ± 284.81 pg/mL, the “expression … (2 μM)” value was 2344.00 ± 293.66 pg/mL and the “expression … (10 μM)” value came to 2269.45 ± 134.54 pg/mL.
In the case of `CC(C)[C@@H]1CNCCCN1S(=O)(=O)c1cccc2c(O)nccc12` [Compound R-YK1609, (R)-5-((2-isopropyl-1,4-diazacycloheptan-1-yl)sulfonyl)isoquinolin-1-ol], the “Cerebral hemorrhage volume score (x ± s)” value in series [1] stood at 12.27 ± 2.02. Moreover, the IC50 at 24 h in series [2] came out at 327 µM. Also, in the series on nitric oxide (NO), the “nitric oxide secretion … (0.4 μM)” value was found to be 0.978 ± 0.028 μm, the “nitric oxide secretion … (2 μM)” value is listed as 1.014 ± 0.051 μm and the “nitric oxide secretion … (10 μM)” value is recorded as 1.115 ± 0.006 μm. Moreover, in series [3], the “expression … (0.4 μM)” value amounted to 2728.44 ± 257.58 pg/mL, the “expression … (2 μM)” value was found to be 2375.91 ± 287.28 pg/mL and the “expression … (10 μM)” value came to 2235.87 ± 213.65 pg/mL.
